# Data taken from publication PMC9127750, “Structure-based design of CDC42 effector interaction inhibitors for the treatment of cancer” (Cell reports, 2022).
# Values joined by “and” are separate entries in the source; they are usually repeats but may differ in a detail not shown here. Equal values may be shown once.
# Test system: WM3248 melanoma cells, 486 antibodies
# Test: Reverse phase protein arrays (RPPA);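 for CREB pS133.R.C RPPA level: ratio of treated to vehicle (0 µM) normalized linear protein signal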;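 for Cyclin.B1.R.V RPPA level: ratio of treated to vehicle (0 µM) normalized linear protein signal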;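 for Cyclin.E1.R.V RPPA level: ratio of treated to vehicle (0 µM) normalized linear protein signal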;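 for DDB.1.R.V RPPA level: ratio of treated to vehicle (0 µM) normalized linear protein signal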
# Format: cell-based, Human
# Settings: 10 uM
# Excerpt: Pellets were snap frozen in liquid nitrogen and shipped to MD Anderson Cancer Center core RPPA facility for RPPA analysis (Table S5). Three biological replicates for each sample were generated.
# Nomenclatures on the RPPA heatmaps: name_of_antibody.species_of_antibody.status_of_antibody. V - antibody validated; C - validation of antibody in progress; Q - antibody nonspecific; E – under evaluation; antibodies raised in M - mouse, G - goat, R - rabbit, or T - rat.
compound,measurement,setting,value
"CN(C)c1cccc(Nc2cc(-c3ccccc3)nc(C3CCNCC3)n2)c1 [ARN22089, N1,N1-dimethyl-N3-(6-phenyl-2-(piperidin-4-yl)pyrimidin-4-yl)benzene-1,3-diamine]",CENP.A.R.V RPPA level,replicates,1.151 and 1.005 and 0.894
same,CHD1L.R.V RPPA level,replicates,1.053 and 0.975
same,CIITA.R.C RPPA level,replicates,0.943
same,COG3.R.V RPPA level,replicates,1.004 and 1.123 and 1.059
same,CRABP1.R.C RPPA level,replicates,1.020 and 1.132 and 0.998
same,CRABP2.R.V RPPA level,replicates,1.116 and 1.191 and 0.898
same,CREB_pS133.R.C RPPA level,replicates,1.215 and 1.129 and 1.046
same,CSK.R.C RPPA level,replicates,1.016 and 1.050
same,Calnexin.R.V RPPA level,replicates,1.054 and 1.062 and 1.021
same,Caspase.3.cleaved.R.C RPPA level,replicates,0.914 and 0.955 and 0.964
same,Caspase.7.cleaved..R.C RPPA level,replicates,0.854 and 1.203 and 0.935
same,Caspase.8.M.Q RPPA level,replicates,0.939 and 0.985 and 0.948
same,Caspase.8.cleaved.R.C RPPA level,replicates,1.012 and 1.005
same,Caveolin.1.R.V RPPA level,replicates,0.511 and 0.968 and 1.344
same,Cdc6.R.V RPPA level,replicates,1.149 and 0.959 and 0.806
same,Cdc42.R.C RPPA level,replicates,0.879 and 1.031 and 1.047
same,Chk1.M.C RPPA level,replicates,0.982
same,Chk1_pS296.R.V RPPA level,replicates,1.083 and 1.109 and 1.035
same,Chk1_pS345.R.C RPPA level,replicates,1.079 and 0.892
same,Chk2.M.V RPPA level,replicates,1.081 and 1.018 and 0.980
same,Chk2_pT68.R.C RPPA level,replicates,1.106 and 0.986
same,Claudin.7.R.V RPPA level,replicates,1.024 and 1.518
same,Collagen.VI.R.V RPPA level,replicates,1.360 and 0.732 and 0.984
same,Complex.II.Subunit.M.V RPPA level,replicates,0.942 and 1.064
same,Connexin.43.R.C RPPA level,replicates,1.028 and 1.053 and 1.013
same,Coup.TFII.R.C RPPA level,replicates,0.805 and 0.957 and 0.905
same,Cox2.R.C RPPA level,replicates,0.926
same,Cox.IV.R.V RPPA level,replicates,0.954 and 1.028 and 0.879
same,Creb.R.C RPPA level,replicates,0.985 and 0.987 and 0.986
same,CtIP.R.V RPPA level,replicates,0.811 and 0.959 and 1.049
same,Cyclin.B1.R.V RPPA level,replicates,1.215 and 0.558 and 1.046
same,Cyclin.D1.R.C RPPA level,replicates,1.058 and 1.030
same,Cyclin.D3.M.V RPPA level,replicates,1.147 and 1.027 and 0.999
same,Cyclin.E1.R.V RPPA level,replicates,1.052 and 1.061 and 0.904
same,D.a.Tubulin.R.V RPPA level,replicates,0.843 and 1.062 and 1.022
same,DAPK1_pS308.M.C RPPA level,replicates,1.219 and 0.875
same,DAPK2.R.C RPPA level,replicates,0.896 and 0.971
same,DDB.1.R.V RPPA level,replicates,0.816 and 0.798 and 0.956
same,DDR1.R.V RPPA level,replicates,1.205 and 0.959 and 0.921
same,DDR1_pY513.R.C RPPA level,replicates,1.134 and 1.079 and 0.941
same,DJ1.R.V RPPA level,replicates,0.977 and 1.030
same,DM.Histone.H3.R.V RPPA level,replicates,0.923 and 0.956 and 0.905
same,DM.K9.Histone.H3.M.V RPPA level,replicates,1.060 and 1.027
same,DNA.Ligase.IV.R.C RPPA level,replicates,0.876 and 1.063
same,DNA_POLG.R.V RPPA level,replicates,1.161 and 1.030 and 0.850
same,c.Jun_pS73.R.V RPPA level,replicates,0.892 and 1.231 and 0.915
same,c.Kit.R.V RPPA level,replicates,1.223 and 0.923 and 0.946
same,c.Met_pY1234_Y1235.R.V RPPA level,replicates,0.927 and 0.979
same,c.Myc.R.C RPPA level,replicates,0.990 and 1.949 and 1.062
same,cGAS.R.V RPPA level,replicates,1.123 and 1.204 and 1.015
same,cdc2_pY15.R.C RPPA level,replicates,1.056 and 0.933
same,cdc25C.R.V RPPA level,replicates,0.773 and 0.805 and 1.120
same,RPPA MYH11.R.C,single replicates,1.100 and 1.584
same,RPPA Myosin.IIa.R.C,single replicates,0.877 and 0.781 and 1.164
same,RPPA Myosin.IIa_pS1943.R.V,single replicates,0.954 and 0.844 and 1.268
same,RPPA Myt1.R.C,single replicates,0.886 and 0.984 and 1.096
same,RPPA N.Cadherin.R.V,single replicates,1.097 and 1.063 and 1.030
same,RPPA N.Ras.M.V,single replicates,0.953 and 0.958 and 1.062
same,RPPA NAPSIN.A.R.C,single replicates,0.999 and 1.048
same,RPPA NDRG1_pT346.R.V,single replicates,0.798 and 1.051 and 1.195
same,RPPA NDUFB4.R.V,single replicates,1.112 and 1.008 and 0.987
same,RPPA NRF2.R.C,single replicates,1.131 and 0.925 and 0.932
same,RPPA Notch1.R.V,single replicates,1.065 and 1.124 and 1.005
same,RPPA Notch1.cleaved.R.V,single replicates,0.792 and 0.886 and 1.098
same,RPPA Notch3.R.C,single replicates,1.065 and 1.230 and 1.000
same,RPPA Oct.4.R.C,single replicates,0.909
same,RPPA P.Cadherin.R.C,single replicates,1.001 and 0.968
same,RPPA PAI.1.M.V,single replicates,0.919 and 0.946
same,RPPA PAICS.R.C,single replicates,0.926 and 0.836 and 0.997
same,RPPA PAK1.R.V,single replicates,0.749 and 1.057 and 1.078
same,RPPA PAK4.R.V,single replicates,1.101 and 1.108 and 0.979
same,RPPA PAK_pS474_S602_S560.R.V,single replicates,1.125 and 1.130 and 1.000
same,RPPA PAK_pT423_T402.R.C,single replicates,1.141 and 0.908
same,RPPA PAR.R.C,single replicates,0.306 and 0.831 and 0.304
same,RPPA PARG.R.C,single replicates,0.976 and 1.013 and 0.921
same,RPPA PARP.R.V,single replicates,1.079 and 0.890 and 1.083
same,RPPA PAX6.R.V,single replicates,0.992 and 1.020 and 0.997
same,RPPA PAX8.R.C,single replicates,1.133 and 1.022 and 0.978
same,RPPA PCNA.M.C,single replicates,0.928 and 1.013 and 1.020
same,RPPA PD.1.R.V,single replicates,1.076 and 1.064 and 1.035
same,RPPA PD.L1.R.C,single replicates,0.845 and 1.047
same,RPPA PDH.M.V,single replicates,1.032 and 1.047 and 1.014
